Data: patent US20230279233A1, “ATROROSINS AS FOOD COLORS” (Chromologics ApS, priority 2020, published 2023)
“And” between values parts separate entries of the source, which are not always exact repeats. Equal entries are not always repeated. Where two headings read alike, the source gives them in different places.

Key:
[1] = background, literature; cited from earlier work
[2] = Temperature stability at 60° C. and 80° C. in McIlvaine buffer pH 5, absorption maxima
Description: Buffer and atrorosin was mixed for 5 minutes before the solutions were subjected heating in an incubator at 60° C. and 80° C. to colorimetric analysis using spectrophotometer. The absorption maxima at 425 nm and 490 nm were determined in a microtiter plate with a 0.45 cm cell length with buffer as blank. In comparison to the data in Table 3, the absorption spectrum of betanin is determined as above. […] In comparison to Table 5, the absorption spectrum of betanin is determined as above.

[3] = Pharmacokinetic profile in rats, IV and PO; format: in vivo; conditions: rat, IV 1 mg/kg; for Cmax: read-out: C0/Cmax
Description: Resulting powder from example 2 was sent to Evotec to asses for the pharmacokinetic profile of atrorosin. 6 rats were used, 3 rats for IV injection of atrorosin and 3 rats for PO. The rats were injected or given through mouth gauge 2 mg/kg, and blood samples were taken at regular intervals.
In comparison to example 10, similar carminic acid was also sent to Evotec to assess the pharmacokinetic profile.

TA 98 = assay: mini-Ames (AMES MPF) genotoxicity; format: cell-based
Description: Resulting powder from example 2 was sent to Cyprotox to asses for genotoxicity in a mini-Ames experiment. 43.2 mg of atrorosin was sent to Cyprotox. Mini-Ames test were conducted under the guidelines of OECD.
In comparison to the atrorosin tested above, similar 46.4 mg of carminic acid was also sent to Cyprotox to assess for genotoxicity.

[4] = pH stability in McIlvaine buffer pH 2.2-7.2, absorption maxima by spectrophotometer; format: physicochemical
[5] = as above; format: physicochemical; remark: listed apart in the source
Description: In comparison to the pH data for Atrorosin-E of Table 1, the absorption spectrum of carminic acid is determined as above. Its absorption maxima are 495 nm, 525 nm, 565 nm. The pH stability data for carminic acid is shown below in Table 2: […]

[6] = Pharmacokinetic profile in rats, IV and PO; format: in vivo; conditions: rat, IV 1 mg/kg

O=C(O)C1=C/C(=C/C=[N+]2/c3cc(O)c(OC4OC(CO)[C@@H](O)C(O)C4O)cc3CC2C(=O)[O-])CC(C(=O)O)N1 (stereo in doubt) [betanin, reference compound]
temperature stability (in words) [1]: lack of stability over 40 °C | heat stability (in words) ([2]; 60° C. over 24 hours): degrades significantly | Absorption at 530 nm ([2]; 60° C., 1 H): 0.26 | Absorption at 530 nm ([2]; 60° C., 2 H): 0.2 | Absorption at 530 nm ([2]; 60° C., 3 H): 0.17 | Absorption at 530 nm ([2]; 60° C., 24 H): 0.05 | Absorption at 530 nm ([2]; 60° C., T0: Start): 0.29 | heat stability (in words) ([2]; 80° C. over 3 hours): degrades significantly | Absorption at 530 nm ([2]; 80° C., 1 H): 0.07 | Absorption at 530 nm ([2]; 80° C., 2 H): 0.05 | Absorption at 530 nm ([2]; 80° C., 3 H): 0.03 | Absorption at 530 nm ([2]; 80° C., 15 min): 0.19 | Absorption at 530 nm ([2]; 80° C., T0: Start): 0.28

Cc1c(C(=O)O)c(O)cc2c1C(=O)c1c(O)c([C@@H]3O[C@H](CO)[C@@H](O)[C@H](O)[C@H]3O)c(O)c(O)c1C2=O [carminic acid, reference compound]
C0/Cmax ([3]; Mean): 8213 ng/mL | Clast ([3]; Mean): 13.4 ng/mL | MRT ([3]; Mean): 3.5 h | Vdss ([3]; Mean): 0.3 L/kg | t½ ([3]; Mean): 3.5 ± 0.2 h | Cmax ([3]; Mean): 16.7 µM | AUCinf ([3]; individual rats 1-3, 1 mg/kg): 11497 ng · hr/mL and 12597 ng · hr/mL and 13408 ng · hr/mL and 23350 nM · hr and 25583 nM · hr and 27230 nM · hr | C0/Cmax ([3]; individual rats 1-3, 1 mg/kg): 7095 ng/mL and 6542 ng/mL and 11003 ng/mL | CL/CL_F ([3]; individual rats 1-3, 1 mg/kg): 1.4 mL/min/kg and 1.3 mL/min/kg and 1.2 mL/min/kg | Clast ([3]; individual rats 1-3, 1 mg/kg): 12.3 ng/mL and 12.7 ng/mL and 15.3 ng/mL | MRT ([3]; individual rats 1-3, 1 mg/kg): 3.2 h and 3.3 h and 3.9 h | t½ ([3]; individual rats 1-3, 1 mg/kg): 3.7 h and 3.4 h (2×) | Cmax ([3]; individual rats 1-3, 1 mg/kg): 14.4 µM and 13.3 µM and 22.3 µM | temperature stability (in words) [1]: good temperature stability | Fold increase (over baseline) (TA 98; TA 98 +S9, 62.5 μg/ml): 0.42 | mean # pos. Wells (TA 98; TA 98 +S9, 62.5 μg/ml): 1.00 | Fold increase (over baseline) (TA 98; TA 98 +S9, 125 μg/ml): 0.28 | mean # pos. Wells (TA 98; TA 98 +S9, 125 μg/ml): 0.67 | Fold increase (over baseline) (TA 98; TA 98 +S9, 250 μg/ml): 0.14 | mean # pos. Wells (TA 98; TA 98 +S9, 250 μg/ml): 0.33 | Fold increase (over baseline) (TA 98; TA 98 +S9, 500 μg/ml): 0.00 | mean # pos. Wells (TA 98; TA 98 +S9, 500 μg/ml): 0.00 | Fold increase (over baseline) (TA 98; TA 98 +S9, 1000 μg/ml): 0.00 | mean # pos. Wells (TA 98; TA 98 +S9, 1000 μg/ml): 0.00 | Fold increase (over baseline) (TA 98; TA 98 +S9, 2000 μg/ml): 0.14 | mean # pos. Wells (TA 98; TA 98 +S9, 2000 μg/ml): 0.33 | Fold increase (over baseline) (TA 98; TA 98 −S9, 62.5 μg/ml): 0.25 | mean # pos. Wells (TA 98; TA 98 −S9, 62.5 μg/ml): 0.33 | Fold increase (over baseline) (TA 98; TA 98 −S9, 125 μg/ml): 0.51 | mean # pos. Wells (TA 98; TA 98 −S9, 125 μg/ml): 0.67 | Fold increase (over baseline) (TA 98; TA 98 −S9, 250 μg/ml): 0.25 | mean # pos. Wells (TA 98; TA 98 −S9, 250 μg/ml): 0.33 | Fold increase (over baseline) (TA 98; TA 98 −S9, 500 μg/ml): 0.25 | mean # pos. Wells (TA 98; TA 98 −S9, 500 μg/ml): 0.33 | Fold increase (over baseline) (TA 98; TA 98 −S9, 1000 μg/ml): 0.00 | mean # pos. Wells (TA 98; TA 98 −S9, 1000 μg/ml): 0.00 | Fold increase (over baseline) (TA 98; TA 98 −S9, 2000 μg/ml): 0.00 | mean # pos. Wells (TA 98; TA 98 −S9, 2000 μg/ml): 0.00 | genotoxic effects (in words) (TA 98; mini-Ames study): do not exert any genotoxic effects | Absorption at 565 nm ([4]; pH 2.2): 0.771 | Absorption at 565 nm ([4]; pH 3.5): 1.365 | Absorption at 525 nm ([4]; pH 5): 1.834 | Absorption at 565 nm ([4]; pH 5): 1.852 | Absorption at 495 nm ([4]; pH 7.2): 1.625 | Absorption at 495 nm ([5]; pH 2.2): 0.859 | Absorption at 525 nm ([5]; pH 2.2): 0.88 | Absorption at 495 nm ([5]; pH 3.5): 1.289 | Absorption at 525 nm ([5]; pH 3.5): 1.404 | Absorption at 495 nm ([5]; pH 5): 1.561 | Absorption at 525 nm ([5]; pH 7.2): 2.171 | Absorption at 565 nm ([5]; pH 7.2): 2.23 | CL/CL_F (plasma clearance) ([6]; Mean): 1.3 ± 0.1 mL/min/kg | Tlast ([6]; individual rats 1-3): 24 h | Vdss ([6]; individual rats 1-3): 0.3 L/kg | AUC0-t ([6]; individual rats 1-3, 1 mg/kg): 11431 ng · hr/mL and 12535 ng · hr/mL and 13332 ng · hr/mL and 23216 nM · hr and 25457 nM · hr and 27076 nM · hr
